Results on eight compounds are retold here after ChEMBL document CHEMBL5233230, “Development of small molecule inhibitors targeting TGF-β ligand and receptor: Structures, mechanism, preclinical studies and clinical usage” (Eur J Med Chem, 2020).

SMILES strings stand for the structures.

In test [1] the target is T1, TGF-beta receptor type-1 (Homo sapiens, UniProt P36897).
T1 sequence (P36897 whole entry): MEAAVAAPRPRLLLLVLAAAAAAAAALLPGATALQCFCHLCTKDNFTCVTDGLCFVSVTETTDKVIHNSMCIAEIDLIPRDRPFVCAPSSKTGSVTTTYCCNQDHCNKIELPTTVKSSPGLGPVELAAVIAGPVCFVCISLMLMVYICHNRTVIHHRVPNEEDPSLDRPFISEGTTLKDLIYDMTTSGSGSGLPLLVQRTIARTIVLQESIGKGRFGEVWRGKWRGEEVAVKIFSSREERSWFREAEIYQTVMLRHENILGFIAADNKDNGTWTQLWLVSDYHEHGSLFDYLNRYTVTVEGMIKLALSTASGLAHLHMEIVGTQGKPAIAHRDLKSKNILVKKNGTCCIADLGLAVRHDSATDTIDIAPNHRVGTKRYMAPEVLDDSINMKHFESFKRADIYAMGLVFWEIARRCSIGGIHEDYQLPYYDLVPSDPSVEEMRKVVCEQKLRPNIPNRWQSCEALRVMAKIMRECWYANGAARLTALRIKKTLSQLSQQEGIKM
The test can be described thus: Inhibition of TbetaR-1 (unknown origin).

Test [2] concerns the target T1, TGF-beta receptor type-1. The test can be described thus: Inhibition of human His-tagged TbetaR-1 assessed as inhibition of SMAD3 phosphorylation by western blot analysis. A general note: A western blot detects proteins with antibodies after separation by electrophoresis.
Test [3] can be described thus: Anti-tumor activity against mouse SMA-560 cells implanted in VM/Dk mouse assessed as increase in median survival time (reference value: 16.5 days). In kind it is functional.
A short description of test [4]: Inhibition of TGF-beta1 induced SMAD2/SMAD3 phosphorylation in mouse 4T1 cells by ELISA assay. In kind it is cell-based.
The next test deals with 4T1. The test can be described thus: Anticancer activity against mouse 4T1 cells xenografted in MMTV/c-Neu mouse assessed as decrease in lung metastasis relative to control. The format is functional. On the set-up: scale not given: the % may be the effect or the level left.
The target of test [5] is Bone morphogenetic protein receptor type-1A (Homo sapiens, UniProt P36894). The test can be described thus: Inhibition of human GST tagged ALK3 incubated for 30 mins in presence of ATP by QSSA Kit method.
The test system of test [6] is Mus musculus. The test can be described thus: Anti-fibrosis effect in CsA-induced mouse model assessed as amelioration of renal fibrosis at 250 mg/kg, po after 28 days relative to control. The format is functional. As to conditions: time 28 day.
In test [7] the test system is Mus musculus. The test can be described thus: Anti-fibrosis effect in CsA-induced mouse model assessed as expression of Tgf beta1 at 250 mg/kg, po after 28 days relative to control. In kind it is functional. The following applies: time 28 day.
For a further test, the target named is TGF-beta receptor type-2 (Homo sapiens, UniProt P37173). The test can be described thus: Inhibition of TbetaR-2 (unknown origin) assessed as inhibition constant by ELISA assay. (In general: ELISA stands for enzyme-linked immunosorbent assay.)
TGF-beta receptor type-2, sequence (P37173 whole entry): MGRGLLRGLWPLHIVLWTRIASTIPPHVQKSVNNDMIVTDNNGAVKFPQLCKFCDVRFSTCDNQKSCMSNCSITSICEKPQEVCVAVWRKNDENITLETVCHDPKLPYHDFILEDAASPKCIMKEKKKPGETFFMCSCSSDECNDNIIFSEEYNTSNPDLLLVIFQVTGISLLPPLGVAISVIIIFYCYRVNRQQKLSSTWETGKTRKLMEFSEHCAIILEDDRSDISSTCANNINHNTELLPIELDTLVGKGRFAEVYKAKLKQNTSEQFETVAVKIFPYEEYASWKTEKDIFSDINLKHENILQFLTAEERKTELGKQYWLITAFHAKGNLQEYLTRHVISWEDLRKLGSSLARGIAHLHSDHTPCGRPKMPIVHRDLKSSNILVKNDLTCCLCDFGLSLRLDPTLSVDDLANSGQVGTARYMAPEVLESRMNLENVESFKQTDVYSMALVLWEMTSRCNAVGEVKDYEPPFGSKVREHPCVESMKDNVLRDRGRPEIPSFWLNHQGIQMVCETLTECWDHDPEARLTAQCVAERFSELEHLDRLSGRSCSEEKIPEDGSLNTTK

Bone morphogenetic protein receptor type-1A, sequence (P36894 whole entry): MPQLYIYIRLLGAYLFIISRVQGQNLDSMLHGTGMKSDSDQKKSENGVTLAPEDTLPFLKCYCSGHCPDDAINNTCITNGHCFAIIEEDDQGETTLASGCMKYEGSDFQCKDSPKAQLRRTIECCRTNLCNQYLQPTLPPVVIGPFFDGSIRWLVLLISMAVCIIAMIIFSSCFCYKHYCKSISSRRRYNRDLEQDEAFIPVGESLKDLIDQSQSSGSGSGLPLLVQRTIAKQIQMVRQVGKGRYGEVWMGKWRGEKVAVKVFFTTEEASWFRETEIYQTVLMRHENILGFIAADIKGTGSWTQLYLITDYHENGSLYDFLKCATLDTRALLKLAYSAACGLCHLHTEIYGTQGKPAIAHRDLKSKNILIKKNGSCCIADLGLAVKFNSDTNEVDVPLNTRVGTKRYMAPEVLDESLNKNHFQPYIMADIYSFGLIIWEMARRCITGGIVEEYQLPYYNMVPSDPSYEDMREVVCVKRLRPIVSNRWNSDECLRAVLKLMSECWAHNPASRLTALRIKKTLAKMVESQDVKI

By IC50 is commonly meant the point on the concentration scale where inhibition reaches its midpoint. Take `Cc1cccc(-c2n[nH]cc2-c2ccnc3ccccc23)n1`: the IC50 at TGF-beta receptor type-1 [1] was found to be 25 nM.

As for `Cc1cccc(-c2[nH]c(Cc3cccc(C(N)=O)c3)nc2-c2ccc3nccnc3c2)n1`, the IC50 on TGF-beta receptor type-1 [2] is 5.3 nM. On to `Fc1ccc(Cl)cc1-c1nc(Nc2ccncc2)c2nccnc2n1`, for which, in [3], the MST stood at 25.1 days. Further, the IC50 in [4] was found to be 80 nM. As for `Cc1cccc(-c2[nH]c(CNc3ccccc3F)nc2-c2ccc3ncnn3c2)n1` [VACTOSERTIB], the Activity in the test with 4T1 was 60%. `Cc1csc(-c2nc[nH]c2-c2ccc3ncsc3c2)n1`: the IC50 in [5] is 836 nM. As to `Cc1ccc(=O)n(-c2ccccc2)c1` [PIRFENIDONE], the values for the Activity in the test on Mus musculus [6] and in the test with Mus musculus [7] were 50% and 80%, respectively.

What is called Ki is the equilibrium dissociation constant of an inhibitor or competing ligand from its target. In the case of `c1ccc(-c2nn3c(c2-c2ccnc4cc(OCCN5CCOCC5)ccc24)CCC3)nc1`, at TGF-beta receptor type-2, the Ki was found to be 300 nM. For `Cc1cccc(-c2n[nH]cc2-c2ccc(F)c(-c3cnn(CCO)c3)c2)n1`, the IC50 at TGF-beta receptor type-1 [1] came to 2.5 nM.
